In patent US4816447A, “Anti-viral guanine compounds” (priority 1984, dated 1989):
Where two headings read alike, the source gives them in different places.

Legend:
[1] = tested on: HSV-2 TS6; details: HSV-2 Ts6
[2] = tested on: Varicella-Zoster virus, strain KMcC; assay: Plaque inhibition, Varicella Zoster virus on MRC5 cells (Table V); type: cell-based, Varicella-Zoster virus; MRC5 (human diploid lung) cells
[3] = tested on: Vaccinia; assay: microbe, parasite or virus in culture; type: cell-based, vaccinia; MRC5 (human diploid lung) cells
[4] = tested on: Recombinant 6-34; assay: Drug sensitivity of HSV-1/HSV-2 intertypic Recombinant 6-34; details: read-out: ED50
[5] = tested on: HSV-1 wild type (Schooler); assay: Protection of mice against intraperitoneal infection with HSV-1 (Table IX); type: in vivo, HSV-1; mice
Protocol: 1. […] Groups of mice infected intraperitoneally with increasing doses of HSV-1 or HSV-1 (383R1) were treated twice daily subcutaneously for 4 days with either the Cyclic Monophosphate or the compound of Formula II. Mean survival times of treated mice were compared.

[6] = tested on: Recombinant 6-26; assay: Drug sensitivity of HSV-1/HSV-2 intertypic Recombinant 6-26; details: read-out: ED50
[7] = tested on: HSV-1; assay: In vitro activity against HSV-1 with and without added thymidine; type: cell-based; details: read-out: ED50 (the source's name)
[8] = tested on: Herpes simplex virus; assay: Plaque inhibition, Herpes simplex virus on MRC5 cells (Table V); type: cell-based, Herpes simplex virus; MRC5 (human diploid lung) cells; details: MRC5, read-out: ED50, concentration required for 50% plaque inhibition
[9] = tested on: HSV-1 wild type Strain 17; assay: Drug sensitivity of HSV-1 wild type Strain 17; details: Human alphaherpesvirus 1, read-out: ED50
[10] = tested on: Recombinant 6-30; assay: Drug sensitivity of HSV-1/HSV-2 intertypic Recombinant 6-30; details: read-out: ED50
[11] = tested on: Recombinant 6-19; assay: Drug sensitivity of HSV-1/HSV-2 intertypic Recombinant 6-19; details: read-out: ED50
[12] = Comparative solubilities in pH 7.2 buffer at 25°; type: physicochemical; details: qualitative statement
Protocol: Comparative Solubilities in pH 7.2 Buffer at 25°
Solubilities were determined by suspending an excess amount of the compound in approximately 0.15 molar phosphate buffer (pH 7.2) and shaking overnight in a water bath at 25° to give a saturated solution. The concentration of the compound in the filtered solution was calculated on the basis of spectrophotometric measurements, i.e. comparison of the ultraviolet absorbance at the λmax for the saturated solution with the absorbance value observed for a known concentration of the compound.

[13] = tested on: human cytomegalovirus, strain AD169; assay: Plaque inhibition, cytomegalovirus on MRC5 cells (Table V); type: cell-based, human cytomegalovirus; MRC5 (human diploid lung) cells

With Nc1nc2c(ncn2COC2COP(=O)(O)OC2)c(=O)[nH]1 (centres unmarked) [Cyclic Monophosphate, Potassium 9-(1,3-dihydroxy-2-propoxymethyl)guanine cyclic monophosphate] the “sensitivity of HSV-2 Ts6” value [1] was “sensitive”, the “in vitro effectiveness against Varicella Zoster virus relative to acyclovir or compound of Formula II” value [2] was “substantially more effective” and the “more active than either compound of Formula II or acyclovir” value [2] was “approximately 10 fold”. The EC50 ([2]; Human alphaherpesvirus 3, MRC5, read-out: ED50, concentration required for 50% plaque inhibition) was 0.4 to 0.8 µg/mL, the EC50 ([3]; Orthopoxvirus vaccinia, MRC5, read-out: ED50, concentration required for 50% plaque inhibition) was 6 to 12 µg/mL and the “inhibition of DNA virus” value ([3]; vaccinia) was “inhibitory”. For the same compound, the EC50 [4] was 6.3 µg/mL, the “Mean Survival Time (± SD)” value ([5]; HSV-1, s.c. twice daily, 4 days) was 12.65 (0.84) and the “protective efficacy over a 10^6 -fold virus challenge range” value ([5]; HSV-1 or HSV-1 (383R1)) was “no significant difference in protective efficacy”. The EC50 [6] was 1.1 µg/mL, the EC50 ([7]; Human alphaherpesvirus 1, absence of thymidine) was 12.5 µg/mL and the EC50 ([7]; Human alphaherpesvirus 1, presence of thymidine (20 μg/ml)) was 25 to 50 µg/mL. It also gave an EC50 [8] of 3 to 6 µg/mL, an EC50 [9] of 0.9 µg/mL and an EC50 [10] of 0.3 µg/mL. The EC50 [11] was 4.7 µg/mL, the “solubility compared to compound of Formula II and acyclovir” value [12] was “readily soluble” and the “more active than acyclovir” value [13] was “approximately 10 fold”. For the same compound, the “potency relative to compound of Formula II” value [13] was “equipotent” and the EC50 ([13]; Human betaherpesvirus 5, AD169, MRC5, read-out: ED50, concentration required for 50% plaque inhibition) was 0.8 µg/mL.
